# Experimental data as given in US9315503B2, “Kinase inhibitors” (CHIESI FARMACEUTICI S.p.A., priority 2011, dated 2016).
# Where a name gives a salt, the structure may show the parent alone.
# What was measured:
# p38alpha = target: T1, p38alpha (Homo sapiens, UniProt Q16539); assay: P38Alpha enzyme inhibition assay (Alphascreen kinase activity assay); assay type: biochemical; conditions: 100 pM p38alpha, 250 μM ATP, 2 hours pre-incubation at 25° C., read-out: p38α inhibition (IC50 values)
# T1 construct: purchased Invitrogen PV3304
# Outline: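 p38α (100 pM) with ATF-2 fusion protein substrate (0.3 µg/ml) in pH 7.5 HEPES/MgCl2 buffer, 1% DMSO, preincubated 2 h at 25°C with compound. Reaction started with 250 µM ATP, ran 1 h at 25°C, then stopped with EDTA. Phospho-ATF2 antibody detected by AlphaScreen luminescence; IC50 from concentration-response curves.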
# [1] = system: LPS-stimulated TNFα release from PBMCs; assay: LPS-stimulated PBMC TNFα release assay; assay type: cell-based; conditions: inhibition of TNFα release, human PBMCs, LPS 10 ng/ml, 18 h, ELISA, read-out: p38α inhibition (IC50 values)
# Outline: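 Healthy-donor human PBMCs, density-gradient isolated, preincubated 1 h at 37 °C with compound in 1% FBS RPMI 1640, then stimulated with LPS (10 ng/ml) for 18 h. Supernatant TNFα by ELISA; IC50 from dose-response of % inhibition of control release, n≥3 experiments.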
# T1 sequence (Q16539 whole entry): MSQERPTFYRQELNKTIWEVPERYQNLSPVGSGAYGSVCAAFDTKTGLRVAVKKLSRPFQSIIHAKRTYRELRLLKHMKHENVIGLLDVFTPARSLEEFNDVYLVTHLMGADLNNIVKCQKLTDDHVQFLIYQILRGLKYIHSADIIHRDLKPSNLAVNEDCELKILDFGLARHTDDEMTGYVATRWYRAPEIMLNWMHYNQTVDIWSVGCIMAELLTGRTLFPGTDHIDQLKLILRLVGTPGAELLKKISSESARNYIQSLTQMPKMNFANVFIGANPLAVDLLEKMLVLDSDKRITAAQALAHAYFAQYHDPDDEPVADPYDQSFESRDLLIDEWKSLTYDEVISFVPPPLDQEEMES
Compound,IC50 (p38alpha) [nM],IC50 [1] [nM]
"CC(C)(C)c1cc(NC(=O)N[C@H]2CC[C@@H](Oc3ccc4nnc(N5CCCCC5)n4c3)c3ccccc32)n(-c2cccc(CN3CCC(O)CC3)c2)n1 [Example 52, 1-{5-tert-Butyl-2-[3-(4-hydroxy-piperidin-1-ylmethyl)-phenyl]-2H-pyrazol-3-yl}-3-[(1S,4R)-4-(3-piperidin-1-yl-[1,2,4]triazolo[4,3-a]pyridin-6-yloxy)-1,2,3,4-tetrahydro-naphthalen-1-yl]-urea]",< 10,< 10
"CC(C)(C)c1cc(NC(=O)N[C@H]2CC[C@@H](Oc3ccc4nnc(N5CCCCC5)n4c3)c3ccccc32)n(-c2cccc(SCCO)c2)n1 [Example 53, 1-{5-tert-Butyl-2-[3-(2-hydroxy-ethylsulfanyl)-phenyl]-2H-pyrazol-3-yl}-3-[(1S,4R)-4-(3-piperidin-1-yl-[1,2,4]triazolo[4,3-a]pyridin-6-yloxy)-1,2,3,4-tetrahydro-naphthalen-1-yl]-urea]",< 10,< 10
"Cc1ccc(-n2nc(C(C)(C)C)cc2NC(=O)N[C@H]2CC[C@@H](Oc3ccc4nnc(N5CCC(CO)CC5)n4c3)c3ccccc32)cc1 [Example 54, 1-(5-tert-Butyl-2-p-tolyl-2H-pyrazol-3-yl)-3-{(1S,4R)-4-[3-(4-hydroxymethyl-piperidin-1-yl)-[1,2,4]triazolo[4,3-a]pyridin-6-yloxy]-1,2,3,4-tetrahydro-naphthalen-1-yl}-urea]",< 10,< 10
"CC(C)(C)c1cc(NC(=O)N[C@H]2CC[C@@H](Oc3ccc4nnc(N5CCC(O)CC5)n4c3)c3ccccc32)n(-c2ccc(CO)cc2)n1 [Example 57, 1-[5-tert-Butyl-2-(4-hydroxymethyl-phenyl)-2H-pyrazol-3-yl]-3-{(1S,4R)-4-[3-(4-hydroxy-piperidin-1-yl)-[1,2,4]triazolo[4,3-a]pyridin-6-yloxy]-1,2,3,4-tetrahydro-naphthalen-1-yl}-urea]",< 10,10 to 100
"Cc1ccc(-n2nc(C(C)(C)C)cc2NC(=O)N[C@H]2CC[C@@H](Oc3ccc4nnc(N5CCC[C@H](O)C5)n4c3)c3ccccc32)cc1 [Example 63, 1-(5-tert-Butyl-2-p-tolyl-2H-pyrazol-3-yl)-3-{(1S,4R)-4-[3-((S)-3-hydroxy-piperidin-1-yl)-[1,2,4]triazolo[4,3-a]pyridin-6-yloxy]-1,2,3,4-tetrahydro-naphthalen-1-yl}-urea]",< 10,< 10
"CN1CCCC[C@H]1c1nnc2ccc(O[C@@H]3CC[C@H](NC(=O)Nc4cc(C(C)(C)C)nn4-c4ccc(CO)cc4)c4ccccc43)cn12 [Example 65, 1-[5-tert-Butyl-2-(4-hydroxymethyl-phenyl)-2H-pyrazol-3-yl]-3-{(1S,4R)-4-[3-((S)-1-methyl-piperidin-2-yl)-[1,2,4]triazolo[4,3-a]pyridin-6-yloxy]-1,2,3,4-tetrahydro-naphthalen-1-yl}-urea, partial formate salt]",< 10,< 10
"Cc1ccc(-n2nc(C(C)(C)C)cc2NC(=O)N[C@H]2CC[C@@H](Oc3ccc4nnc(N5CCC(CCO)CC5)n4c3)c3ccccc32)cc1 [Example 66, 1-(5-tert-Butyl-2-p-tolyl-2H-pyrazol-3-yl)-3-{(1S,4R)-4-[3-(4-hydroxyethyl-piperidin-1-yl)-[1,2,4]triazolo[4,3-a]pyridin-6-yloxy]-1,2,3,4-tetrahydro-naphthalen-1-yl}-urea]",< 10,< 10
"Cc1ccc(-n2nc(C(C)(C)C)cc2NC(=O)N[C@H]2CC[C@@H](Oc3ccc4nnc(N5CCCCCC5)n4c3)c3ccccc32)cc1 [Example 67, 1-[(1S,4R)-4-(3-Azepan-1-yl-[1,2,4]triazolo[4,3-a]pyridin-6-yloxy)-1,2,3,4-tetrahydro-naphthalen-1-yl]-3-(5-tert-butyl-2-p-tolyl-2H-pyrazol-3-yl)-urea]",< 10,< 10

# Continued, in another order:
IC50 (p38alpha) [nM],Compound,IC50 [1] [nM]
< 10,"Cc1ccc(-n2nc(C(C)(C)C)cc2NC(=O)N[C@H]2CC[C@H](Oc3ccc4nnc(N5CCCCC5)n4c3)c3ccccc32)cc1 [Example 55, 1-(5-tert-Butyl-2-p-tolyl-2H-pyrazol-3-yl)-3-[(1S,4S)-4-(3-piperidin-1-yl-[1,2,4]triazolo[4,3-a]pyridin-6-yloxy)-1,2,3,4-tetrahydro-naphthalen-1-yl]-urea]",< 10
< 10,"Cc1ccc(-n2nc(C(C)(C)C)cc2NC(=O)N[C@H]2CC[C@@H](Oc3ccc4nnc([C@@H]5CCCN5C(C)C)n4c3)c3ccccc32)cc1 [Example 58, 1-(5-tert-Butyl-2-p-tolyl-2H-pyrazol-3-yl)-3-{(1S,4R)-4-[3-((S)-1-isopropyl-pyrrolidin-2-yl)-[1,2,4]triazolo[4,3-a]pyridin-6-yloxy]-1,2,3,4-tetrahydro-naphthalen-1-yl}-urea]",< 10
< 10,"Cc1ccc(-n2nc(C(C)(C)C)cc2NC(=O)N[C@H]2CC[C@@H](Oc3ccc4nnc(N(C)C)n4c3)c3ccccc32)cc1 [Example 59, 1-(5-tert-Butyl-2-p-tolyl-2H-pyrazol-3-yl)-3-[(1S,4R)-4-(3-dimethylamino-[1,2,4]triazolo[4,3-a]pyridin-6-yloxy)-1,2,3,4-tetrahydro-naphthalen-1-yl]-urea]",< 10
< 10,"Cc1ccc(-n2nc(C(C)(C)C)cc2NC(=O)N[C@H]2CC[C@@H](Oc3ccc4nnc([C@H]5CCCN5C)n4c3)c3ccccc32)cc1 [Example 60, 1-(5-tert-Butyl-2-p-tolyl-2H-pyrazol-3-yl)-3-{(1S,4R)-4-[3-((R)-1-methyl-pyrrolidin-2-yl)-[1,2,4]triazolo[4,3-a]pyridin-6-yloxy]-1,2,3,4-tetrahydro-naphthalen-1-yl}-urea]",< 10
< 10,"CCN1CCC[C@H]1c1nnc2ccc(O[C@@H]3CC[C@H](NC(=O)Nc4cc(C(C)(C)C)nn4-c4ccc(C)cc4)c4ccccc43)cn12 [Example 61, 1-(5-tert-Butyl-2-p-tolyl-2H-pyrazol-3-yl)-3-{(1S,4R)-4-[3-((S)-1-ethyl-pyrrolidin-2-yl)-[1,2,4]triazolo[4,3-a]pyridin-6-yloxy]-1,2,3,4-tetrahydro-naphthalen-1-yl}-urea]",< 10
< 10,"Cc1ccc(-n2nc(C(C)(C)C)cc2NC(=O)N[C@H]2CC[C@@H](Oc3ccc4nnc([C@@H]5CCCCN5C)n4c3)c3ccccc32)cc1 [Example 62, 1-(5-tert-Butyl-2-p-tolyl-2H-pyrazol-3-yl)-3-{(1S,4R)-4-[3-((S)-1-methyl-piperidin-2-yl)-[1,2,4]triazolo[4,3-a]pyridin-6-yloxy]-1,2,3,4-tetrahydro-naphthalen-1-yl}-urea]",< 10
< 10,"Cc1ccc(-n2nc(C(C)(C)C)cc2NC(=O)N[C@H]2CC[C@@H](Oc3ccc4nnc(N5CCC[C@@H](O)C5)n4c3)c3ccccc32)cc1 [Example 64, 1-(5-tert-Butyl-2-p-tolyl-2H-pyrazol-3-yl)-3-{(1S,4R)-4-[3-((R)-3-hydroxy-piperidin-1-yl)-[1,2,4]triazolo[4,3-a]pyridin-6-yloxy]-1,2,3,4-tetrahydro-naphthalen-1-yl}-urea]",< 10
< 10,"Cc1ccc(-n2nc(C(C)(C)C)cc2NC(=O)N[C@H]2CC[C@@H](Oc3ccc4nnc(N5CCN(C)CC5)n4c3)c3ccccc32)cc1 [Example 68, 1-(5-tert-Butyl-2-p-tolyl-2H-pyrazol-3-yl)-3-{(1S,4R)-4-[3-(4-methyl-piperazin-1-yl)-[1,2,4]triazolo[4,3-a]pyridin-6-yloxy]-1,2,3,4-tetrahydro-naphthalen-1-yl}-urea]",< 10
